Results from patent EP0029363A1, “Pyrazole derivatives, process for their preparation and pharmaceutical compositions containing them” (MORISHITA PHARMACEUTICAL CO. LTD., priority 1979, dated 1981).
Like-named read-outs stand apart in the source and are kept apart here.

How the values were obtained:
male SD rats [1] = test: Pharmacological test against hypertriglyceridemia (fructose-loaded rats, serum lipid analysis); format: in vivo; conditions: Rattus norvegicus, rats given aqueous 10% fructose for 2 days, oral, three doses, total dose 300 mg/kg as free carboxylic acid (total dose 300, esters 324-329 mg/kg), blood 48 hours after start
From the text: Seven groups of male SD rats, each group consisting of 6 animals, were used as test animals and one group consisting of 12 animals was used as a control. The test groups were made hypertriglyceridemic by administering aqueous 10% by weight solution of fructose for 2 days, while the animals of the control group were given tap water. The administration to the test groups of six pyrazole derivatives and of nicotinic acid was as follows:
Each pyrazole derivative and nicotinic acid was separately dissolved or dispersed in an aqueous 1% solution of carboxymethylcellulose (CMC) at a predetermined concentration, and the thus prepared solution or dispersion was orally administered in three doses, each dose having a volume of 0.5 ml/100 g body weight, a first dose just after the commencement of the test, a second dose 24 hours after the first dose, and a third dose 18 hours after the second dose. The total dosage of each compound was such that each animal received 300 mg/kg of each compound as free carboxylic acid. The rats of the control group were given the aqueous l% solution of CMC only, in three doses at the same intervals as the test groups. All the groups were fed with the same diet during the test period.
After 48 hours of the commencement of the test, a blood sample was collected from each animal by amputation of the carotid artery, and serum was separated from the blood sample and frozen to be kept until lipid analysis.
Serum triglyceride was determined by Acetylacetone Method, and the reduction percentage of lipid was calculated on the basis of the following formula: [formula] wherein the reduction percentage is the average for the test animals in each group.
The content of serum cholesterol was determined by an enzymatic method using cholesteroloxidase, and the reduction percentage of cholesterol was calculated according to the following formula: [formula]

male SD rats [2] = test: Pharmacological test against hypercholesterolemia (high cholesterol diet rats); format: in vivo; conditions: high cholesterol diet for 7 days, oral 200 mg/kg/day for 7 consecutive days, blood after 20 hours of fasting; for Reduction Percentage Cholesterol in beta-lipoprotein: beta-lipoprotein-cholesterol (heparin-calcium precipitation); for Reduction Percentage Cholesterol: serum cholesterol
From the text: Three groups of male SD rats each weighing about 150g, each group consisting of five rats, were used as test animals and one group consisting of 10 rats was used as control. All animals were fed a high cholesterol diet consisted of 1% cholesterol, 0.2% sodium cholate, 5% olive oil and commercial diet up to total 100% for 7 days. The test compounds of the present invention and clofibrate, as a medicine for comparison, were respectively dissolved or dispersed in an aqueous 1% solution of CMC so that the volume of the solution or dispersion administered each time to an animal was 0.5 ml/l00g body weight, and the solution or dispersion was orally administered so that the amount of administration each time of each pyrazole derivative or of clofibrate was 200 mg/kg body weight. Administration was carried out once a day for 7 consecutive days. Water was taken ad lib. After 20 hours of fasting from the last administration, a blood sample was taken from each animal by amputation of the carotid artery, and the serum separated was frozen until the analysis of cholesterol shown as follows:
The content of serum cholesterol was determined by the above-mentioned method. The beta-lipoprotein- cholesterol was determined by "heparin-calcium precipitation method". The reduction percentage of cholesterol in serum and beta-lipoprotein were calculated in the same manner as above.

Acute toxicity, oral = conditions: mouse, in vivo, male ICR mice, in aqueous 1% CMC, roughly calculated from mortalities at 2.5 and 5.0 g/kg body weight
Protocol: The acute toxicity of the present pyrazole derivatives to mammals was determined by the following method.
Male ICR mice of body weight 21 to 25 g were divided into several groups each consisting of 8 animals and were fasted for 17 to 18 hours and then orally given a pyrazole derivative or nicotinic acid dissolved or dispersed in an aqueous 1% CMC solution at a rate of 0.2 ml/10 g body weight. The administered amount of each compound was 2.5 g/kg body weight or 5.0 g/kg, and from the mortalities at both levels, LD50 was roughly calculated and compared with LD50 of nicotinic acid.

[3] = serum cholesterol, read-out: Reduction Percentage Cholesterol
[4] = serum triglyceride, read-out: Reduction Percentage Triglyceride

| Compound | inhibition in vivo at 300 mg/kg (male SD rats [1]; [3]) [%] | inhibition in vivo at 300 mg/kg (male SD rats [1]; [4]) [%] | Reduction Percentage Cholesterol in beta-lipoprotein (male SD rats [2]) | Reduction Percentage Cholesterol (male SD rats [2]) | LD50 (Acute toxicity, oral) [mg/kg] |
| --- | --- | --- | --- | --- | --- |
| CCCCCCCCCCCCCc1cc(C(=O)O)nn1C [1-methyl-5-n-tridecylpyrazole-3-carboxylic acid] | 61.2 | 75.9 | 57.3 | 60.1 | – |
| CCCCCCCCCCCCCc1cc(C(=O)NCC(=O)OCC)n[nH]1 [3-N-ethoxycarbonylmethylcarbamoyl-5-n-tridecylpyrazole] | 34.8 | 81.4 | 32.7 | 48.6 | – |
| CCCCCCCCCCCCCc1cc(CO)n[nH]1 [3-hydroxymethyl-5-n-tridecylpyrazole] | 55.8 | 78.2 | 25.2 | 52.7 | – |
| CCCCCCCCCCCCCCCCCc1cc(C(=O)O)n[nH]1 [5-n-heptadecylpyrazole-3-carboxylic acid] | 24.5 | 30.5 | – | – | – |
| CCCCCCCCCCCCCCCc1cc(C(=O)O)n[nH]1 [5-n-pentadecylpyrazole-3-carboxylic acid] | 32.1 | 62.8 | – | – | – |
| CCCCCCCCCCCCCc1cc(C(=O)O)n[nH]1 [5-n-tridecylpyrazole-3-carboxylic acid] | 59.8 | 76.4 | 54.3 | 45.2 | – |
| O=C(O)c1cccnc1 [Nicotinic acid, reference compound] | 16.4 | 24.1 | – | – | 4500 |
| CCCCCCCCCCCCCCCCCc1cc(C(=O)OCC)n[nH]1 [ethyl 5-n-heptadecylpyrazole-3-carboxylate] | 32.9 | 35.2 | – | – | – |
| CCCCCCCCCCCCCCCc1cc(C(=O)OCC)n[nH]1 [ethyl 5-n-pentadecylpyrazole-3-carboxylate] | 34.1 | 67.8 | – | – | – |
| CCCCCCCCCCCCCc1cc(C(=O)OCC)n[nH]1 [ethyl 5-n-tridecylpyrazole-3-carboxylate] | 65.1 | 88 | – | – | – |
